Assay results reported in patent US10988477B2 (Merck Patent GmbH, priority 2018, dated 2021).

What was measured:
[1] = target: intracellular GCN2 (phosphorylation of the GCN2 substrate eIF2α) (Homo sapiens, UniProt Q9P2K8); test: GCN2 cellular inhibition assay (AlphaScreen SureFire P-eIF2α Ser51, borrelidin-treated U2OS cells); type: cell-based; details: biomarker assay, phosphorylated eIF2α Ser51 in borrelidin-treated U2OS cells
Method in brief: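 Borrelidin at 10 μM is added to U2OS cells immediately after compound (4-fold dilution series, 40 μM top final) for 1 h at 37 °C. Phosphorylated eIF2α Ser51 in lysates is quantified by AlphaScreen and expressed as percent inhibition against borrelidin-stimulated controls.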

GCN2 kinase = GCN2 kinase (Homo sapiens, UniProt Q9P2K8); test: GCN2 enzyme inhibition assay (Transcreener ADP2 fluorescence polarization); type: biochemical; details: 280 μM ATP
Chain of GCN2 kinase (Q9P2K8 whole entry): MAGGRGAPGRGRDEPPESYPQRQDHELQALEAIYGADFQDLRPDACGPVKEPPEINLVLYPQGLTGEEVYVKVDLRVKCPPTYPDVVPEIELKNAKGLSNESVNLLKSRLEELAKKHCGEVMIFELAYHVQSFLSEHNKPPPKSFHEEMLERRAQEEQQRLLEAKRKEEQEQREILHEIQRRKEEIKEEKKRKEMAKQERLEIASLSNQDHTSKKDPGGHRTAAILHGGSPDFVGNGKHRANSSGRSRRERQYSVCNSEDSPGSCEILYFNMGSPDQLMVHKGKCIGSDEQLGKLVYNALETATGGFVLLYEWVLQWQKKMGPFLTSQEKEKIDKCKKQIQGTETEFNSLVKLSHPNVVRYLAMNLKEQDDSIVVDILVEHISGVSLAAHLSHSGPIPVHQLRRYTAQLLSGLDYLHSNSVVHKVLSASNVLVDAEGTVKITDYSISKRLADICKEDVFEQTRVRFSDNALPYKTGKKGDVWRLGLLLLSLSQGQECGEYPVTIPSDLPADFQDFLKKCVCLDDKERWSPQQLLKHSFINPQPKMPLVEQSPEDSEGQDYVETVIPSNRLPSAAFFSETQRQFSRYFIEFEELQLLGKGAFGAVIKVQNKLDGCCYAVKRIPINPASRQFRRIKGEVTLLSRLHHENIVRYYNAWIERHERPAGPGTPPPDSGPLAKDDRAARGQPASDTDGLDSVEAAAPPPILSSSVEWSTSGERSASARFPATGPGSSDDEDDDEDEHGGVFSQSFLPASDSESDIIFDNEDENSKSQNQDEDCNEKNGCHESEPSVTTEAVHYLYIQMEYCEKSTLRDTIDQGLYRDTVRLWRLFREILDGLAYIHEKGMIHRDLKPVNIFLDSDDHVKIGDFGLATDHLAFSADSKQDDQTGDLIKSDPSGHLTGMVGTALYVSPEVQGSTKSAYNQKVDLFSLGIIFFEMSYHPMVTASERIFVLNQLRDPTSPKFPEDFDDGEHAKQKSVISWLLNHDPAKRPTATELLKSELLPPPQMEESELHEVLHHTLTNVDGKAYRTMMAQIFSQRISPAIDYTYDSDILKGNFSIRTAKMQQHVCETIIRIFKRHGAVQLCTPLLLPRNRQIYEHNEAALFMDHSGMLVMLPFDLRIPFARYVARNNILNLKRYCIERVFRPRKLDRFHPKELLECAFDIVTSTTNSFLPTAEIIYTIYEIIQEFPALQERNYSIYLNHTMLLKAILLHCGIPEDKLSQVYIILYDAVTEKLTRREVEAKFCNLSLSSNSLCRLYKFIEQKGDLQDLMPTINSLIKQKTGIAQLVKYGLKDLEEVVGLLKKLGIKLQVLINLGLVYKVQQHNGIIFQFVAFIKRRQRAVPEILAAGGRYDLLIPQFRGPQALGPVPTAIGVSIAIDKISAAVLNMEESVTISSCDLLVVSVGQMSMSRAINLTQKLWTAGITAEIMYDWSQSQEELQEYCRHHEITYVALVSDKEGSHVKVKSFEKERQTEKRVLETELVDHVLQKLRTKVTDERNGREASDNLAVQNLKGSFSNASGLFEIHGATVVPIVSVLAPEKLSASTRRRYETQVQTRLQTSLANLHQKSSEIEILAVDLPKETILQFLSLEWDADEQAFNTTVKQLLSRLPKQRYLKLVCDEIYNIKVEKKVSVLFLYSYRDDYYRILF
Method in brief: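 Run at 25 °C in 25 mM Tris-HCl pH 7.5, 50 mM NaCl, 10 mM MgCl2, 1 mM DTT with 4 nM GCN2, 280 μM ATP and 200 μM (RS)7 peptide; compound (0–8 μM final) preincubated 10 min, reaction 1 h. ADP read by antibody/tracer FP; IC50 and Ki(app) from tight-binding fit.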

[2] = compounds of Formula II, 4 nM GCN2 kinase
[3] = Enzyme activity for compounds of Formula IV, Ki(app), 25° C.

Chain of intracellular GCN2 (phosphorylation of the GCN2 substrate eIF2α) (Q9P2K8 whole entry): as above

| SMILES | IC50 ([1]; compounds of Formula II) | Ki (GCN2 kinase; [2]) | IC50 ([1]; compounds of Formula IV) | Ki (GCN2 kinase; [3]) | other results |
| --- | --- | --- | --- | --- | --- |
| C[C@H]1[C@@H](CNS(C)(=O)=O)OC(C)(C)CN1c1cc(-c2cnc3ccc(C(F)F)nn23)ncn1 (single isomer, unassigned) [II-490] | < 0.5 µM | < 0.01 µM | – | – | – |
| CC1C(CS(C)(=N)=O)CCCN1c1cc(-c2cnc3ccc(C(F)F)nn23)ncn1 (stereo not drawn) [II-487, ((1-(6-(6-(Difluoromethyl)imidazo[1,2-b]pyridazin-3-yl)pyrimidin-4-yl)-2-methylpiperidin-3-yl)methyl)(imino)(methyl)-λ^6-sulfanone] | < 0.5 µM | 0.01 to 1 µM | – | – | – |
| NC(=O)CCC1CCCN(c2cc(-c3cnc4ccc(C(F)F)nn34)ncn2)C1 (stereo not drawn) [II-214, 3-(1-(6-(6-(Difluoromethyl)imidazo[1,2-b]pyridazin-3-yl)pyrimidin-4-yl)piperidin-3-yl)propanamide] | 0.5 to 5 µM | 0.01 to 1 µM | – | – | – |
| OCCC1CCCN(c2ccnc(-c3cnc4cnc(C(F)(F)F)cn34)n2)C1 (stereo not drawn) [IV-444, 2-(1-(2-(6-(Trifluoromethyl)imidazo[1,2-a]pyrazin-3-yl)pyrimidin-4-yl)piperidin-3-yl)ethan-1-ol] | – | – | > 5 µM | 0.1 to 1 µM | – |
| C[C@H]1[C@H](CNS(C)(=O)=O)N(C2CC2)CCN1c1cc(-c2cnc3ccc(C(F)F)nn23)ncn1 [II-769, N-(((2S,3S)-1-cyclopropyl-4-(6-(6-(difluoromethyl)imidazo[1,2-b]pyridazin-3-yl)pyrimidin-4-yl)-3-methylpiperazin-2-yl)methyl)methanesulfonamide] | 0.5 to 5 µM | – | – | – | IC50 (GCN2 kinase; [2]): 0.01 to 1 µM |
| CC(=O)N1CC2(C1)CN(c1cc(-c3cnc4ccc(C(F)F)nn34)cc(N3CCCC(CNS(C)(=O)=O)C3)n1)C2 (stereo not drawn) [II-55, N-((1-(6-(6-Acetyl-2,6-diazaspiro[3.3]heptan-2-yl)-4-(6-(difluoromethyl)imidazo[1,2-b]pyridazin-3-yl)pyridin-2-yl)piperidin-3-yl)methyl)methanesulfonamide] | < 0.5 µM | < 0.01 µM | – | – | – |
| CC1CC(P(C)(C)=O)CN(c2cc(-c3cnc4ccc(C(F)F)nn34)ncn2)C1 (stereo not drawn) [II-710, 6-(Difluoromethyl)-3-[6-(3-dimethylphosphoryl-5-methyl-1-piperidyl)pyrimidin-4-yl]imidazo[1,2-b]pyridazine] | 0.5 to 5 µM | 0.01 to 1 µM | – | – | – |
| Cc1n[nH]cc1[C@@H]1C[C@@H](O)CN(c2ccnc(-c3cnc4cnc(C(F)(F)F)cn34)n2)C1 [IV-775, (3R,5S)-5-(3-methyl-1H-pyrazol-4-yl)-1-(2-(6-(trifluoromethyl)imidazo[1,2-a]pyrazin-3-yl)pyrimidin-4-yl)piperidin-3-ol] | – | – | > 5 µM | – | IC50 (GCN2 kinase; compounds of Formula IV, 4 nM GCN2 kinase): 0.01 to 1 µM |
| Cc1noc([C@@H]2CN(c3cc(-c4cnc5ccc(C(F)(F)F)nn45)ccn3)C[C@H](C)O2)n1 [II-739] | < 0.5 µM | 0.01 to 1 µM | – | – | – |
| CC1CCC(CNS(C)(=O)=O)CN1c1cc(-c2cnc3ccc(C(F)F)nn23)ncn1 (stereo not drawn) [II-245, N-((1-(6-(6-(Difluoromethyl)imidazo[1,2-b]pyridazin-3-yl)pyrimidin-4-yl)-6-methylpiperidin-3-yl)methyl)methanesulfonamide] | > 5 µM | 0.01 to 1 µM | – | – | – |
| NC(=O)C1CCN(c2ccnc(-c3cnc4cnc(C(F)F)cn34)n2)C1 (stereo not drawn) [IV-63, 1-(2-(6-(Difluoromethyl)imidazo[1,2-a]pyrazin-3-yl)pyrimidin-4-yl)pyrrolidine-3-carboxamide] | – | – | > 5 µM | 0.1 to 1 µM | – |
| NS(=O)(=O)CCC1CCCN(c2cc(-c3cnc4ccc(C(F)F)nn34)ncn2)C1 (stereo not drawn) [II-317, 2-(1-(6-(6-(Difluoromethyl)imidazo[12-b]pyridazin-3-yl)pyrimidin-4-yl)piperidin-3-yl)ethane-1-sulfonamide] | 0.5 to 5 µM | 0.01 to 1 µM | – | – | – |
| CC1CN(c2cc(-c3cnc4ccc(C(F)(F)F)nn34)ncn2)CC(CNS(C)(=O)=O)C1(F)F (stereo not drawn) [II-294, N-((4,4-Difluoro-5-methyl-1-(6-(6-(trifluoromethyl)imidazo[1,2-b]pyridazin-3-yl)pyrimidin-4-yl)piperidin-3-yl)methyl)methanesulfonamide] | > 5 µM | 0.01 to 1 µM | – | – | – |
| CC1C(CO)CCCN1c1cc(-c2cnc3ccc(C(F)F)nn23)ncn1 (stereo not drawn) [II-373, (1-(6-(6-(Difluoromethyl)imidazo[1,2-b]pyridazin-3-yl)pyrimidin-4-yl)-2-methylpiperidin-3-yl)methanol] | 0.5 to 5 µM | < 0.01 µM | – | – | – |
| CS(=O)(=O)N1CCC(c2cc(-c3cnc4ccc(C(F)F)nn34)ncn2)C1 (stereo not drawn) [II-250, 6-(Difluoromethyl)-3-(6-(1-(methylsulfonyl)pyrrolidin-3-yl)pyrimidin-4-yl)imidazo[1,2-b]pyridazine] | > 5 µM | 0.01 to 1 µM | – | – | – |
| CC1C(CS(C)(=O)=O)OCCN1c1cc(-c2cnc3ccc(C(F)F)nn23)ncn1 (stereo not drawn) [II-426, 4-(6-(6-(Difluoromethyl)imidazo[1,2-b]pyridazin-3-yl)pyrimidin-4-yl)-3-methyl-2-((methylsulfonyl)methyl)morpholine] | 0.5 to 5 µM | 0.01 to 1 µM | – | – | – |
| CS(=O)(=O)NCC1CC(O)CN(c2cc(-c3cnc4ccc(C(F)F)nn34)ncn2)C1 (stereo not drawn) [II-13, N-((1-(6-(6-(Difluoromethyl)imidazo[1,2-b]pyridazin-3-yl)pyrimidin-4-yl)-5-hydroxypiperidin-3-yl)methyl)methanesulfonamide] | 0.5 to 5 µM | < 0.01 µM | – | – | – |
| CC1C(c2cn[nH]c2)CC(P(C)(C)=O)CN1c1ccnc(-c2cnc3cnc(C(F)(F)F)cn23)n1 (stereo not drawn) [IV-693, Dimethyl(6-methyl-5-(1H-pyrazol-4-yl)-1-(2-(6-(trifluoromethyl)imidazo[1,2-a]pyrazin-3-yl)pyrimidin-4-yl)piperidin-3-yl)phosphine oxide] | – | – | > 5 µM | 0.01 to 0.1 µM | – |
| OCC1CN(c2cc(-c3cnc4ccc(C(F)F)nn34)ncn2)CC2(CC2)O1 (stereo not drawn) [II-359, (7-(6-(6-(Difluoromethyl)imidazo[1,2-b]pyridazin-3-yl)pyrimidin-4-yl)-4-oxa-7-azaspiro[2.5]octan-5-yl)methanol] | > 5 µM | 0.01 to 1 µM | – | – | – |
| CS(C)(=O)=NC[C@@H]1CN(c2cc(-c3cnc4ccc(C(F)(F)F)nn34)ncn2)CCO1 [II-406, (S)-Dimethyl(((4-(6-(6-(trifluoromethyl)imidazo[1,2-b]pyridazin-3-yl)pyrimidin-4-yl)morpholin-2-yl)methyl)imino)-λ^6-sulfanone] | > 5 µM | > 1 µM | – | – | – |
| CS(=O)(=O)NCC1CCCN(c2cc(-c3cnc4ccc(C(F)F)nn34)cc(N3CC4(CCO4)C3)n2)C1 (stereo not drawn) [II-86, N-((1-(4-(6-(Difluoromethyl)imidazo[1,2-b]pyridazin-3-yl)-6-(1-oxa-6-azaspiro[3.3]heptan-6-yl)pyridin-2-yl)piperidin-3-yl)methyl)methanesulfonamide] | 0.5 to 5 µM | < 0.01 µM | – | – | – |
| CC1CN(c2ccnc(-c3cnc4cnc(C(F)(F)F)cn34)n2)CC(c2cn[nH]c2)N1 (single isomer, unassigned) [IV-460, 3-(4-(3-Methyl-5-(1H-pyrazol-4-yl)piperazin-1-yl)pyrimidin-2-yl)-6-(trifluoromethyl)imidazo[1,2-a]pyrazine] | – | – | 0.5 to 5 µM | 0.1 to 1 µM | – |
| CS(=O)(=O)N1CC2(CCCN(c3cc(-c4cnc5ccc(C(F)F)nn45)ccn3)C2)C1 [II-136, 6-(Difluoromethyl)-3-(2-(2-(methylsulfonyl)-2,6-diazaspiro[3.5]nonan-6-yl)pyridin-4-yl)imidazo[1,2-b]pyridazine] | < 0.5 µM | < 0.01 µM | – | – | – |
| NC(=O)C1CCCN(c2ccnc(-c3cnc4cnc(C(F)(F)F)cn34)n2)C1 (stereo not drawn) [IV-626, 1-(2-(6-(Trifluoromethyl)imidazo[1,2-a]pyrazin-3-yl)pyrimidin-4-yl)piperidine-3-carboxamide] | – | – | 0.5 to 5 µM | < 0.01 µM | – |
| CC1(O)CCCN(c2ccnc(-c3cnc4cnc(C(F)F)cn34)n2)CC1 (stereo not drawn) [IV-90, 1-(2-(6-(Difluoromethyl)imidazo[1,2-a]pyrazin-3-yl)pyrimidin-4-yl)-4-methylazepan-4-ol] | – | – | > 5 µM | 0.1 to 1 µM | – |
| CC1CN(c2ccnc(-c3cnc4cnc(C(F)(F)F)cn34)n2)CC(c2cn[nH]c2)N1 (stereo not drawn) [IV-189, 3-(4-(3-Methyl-5-(1H-pyrazol-4-yl)piperazin-1-yl)pyrimidin-2-yl)-6-(trifluoromethyl)imidazo[1,2-a]pyrazine] | – | – | 0.5 to 5 µM | 0.01 to 0.1 µM | – |
| C[C@H]1[C@@H](c2cn[nH]c2)CCCN1c1ccnc(-c2cnc3cnc(Br)cn23)n1 (relative stereo) [IV-387, Cis-6-Bromo-3-(4-(2-methyl-3-(1H-pyrazol-4-yl)piperidin-1-yl)pyrimidin-2-yl)imidazo[1,2-a]pyrazine] | – | – | < 0.5 µM | < 0.01 µM | – |
| CS(=O)(=O)C1CCCN(c2cc(-c3cnc4ccc(C(F)F)nn34)ncn2)C1 (single isomer, unassigned) [II-529, 6-(Difluoromethyl)-3-(6-(3-(methylsulfonyl)piperidin-1-yl)pyrimidin-4-yl)imidazo[1,2-b]pyridazine] | 0.5 to 5 µM | 0.01 to 1 µM | – | – | – |
| O=C1CCN(c2ccnc(-c3cnc4cnc(C(F)F)cn34)n2)CCN1 [IV-49, 1-(2-(6-(Difluoromethyl)imidazo[1,2-a]pyrazin-3-yl)pyrimidin-4-yl)-1,4-diazepan-5-one] | – | – | > 5 µM | 0.1 to 1 µM | – |
| OCC1CCCCN(c2ccnc(-c3cnc4cnc(C(F)F)cn34)n2)C1 (stereo not drawn) [IV-88, (1-(2-(6-(Difluoromethyl)imidazo[1,2-a]pyrazin-3-yl)pyrimidin-4-yl)azepan-3-yl)methanol] | – | – | > 5 µM | 0.1 to 1 µM | – |
